How the values were obtained:
[1] = tested on: redroot pigweed; test: Test Example 5: herbicidal effect by foliage application, plastic box (Table 20, symbol N); format: in vivo, redroot pigweed (Amaranthus retroflexus); conditions: amount of applied herbicide 320 g/ha; foliage application after 14-day growth; evaluated three weeks after application
Summary of the method: (§1)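 Plants sown in sterilized diluvial soil and grown 14 days in a greenhouse at 25° C to 30° C, then sprayed on the foliage with the compound's emulsion diluted in water to a predetermined herbicide amount. Injury to weeds and crops scored three weeks after application on a visual rating scale.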

[2] = tested on: wild oat; test: Test Example 5: herbicidal effect by foliage application, plastic box (Table 20, symbol I); format: in vivo, wild oat (Avena fatua); conditions: amount of applied herbicide 320 g/ha; foliage application after 14-day growth; evaluated three weeks after application
Summary of the method: as §1

[3] = tested on: southern crabgrass; test: Test Example 5: herbicidal effect by foliage application, plastic box (Table 20, symbol F); format: in vivo, southern crabgrass (Digitaria ciliaris); conditions: amount of applied herbicide 320 g/ha; foliage application after 14-day growth; evaluated three weeks after application
Summary of the method: as §1

[4] = tested on: Italian ryegrass; test: Test Example 5: herbicidal effect by foliage application, plastic box (Table 20, symbol K); format: in vivo, Italian ryegrass (Lolium multiflorum); conditions: amount of applied herbicide 320 g/ha; foliage application after 14-day growth; evaluated three weeks after application
Summary of the method: as §1

[5] = tested on: lambsquarters; test: Test Example 5: herbicidal effect by foliage application, plastic box (Table 20, symbol O); format: in vivo, lambsquarters (Chenopodium album); conditions: amount of applied herbicide 320 g/ha; foliage application after 14-day growth; evaluated three weeks after application
Summary of the method: as §1

[6] = tested on: velvetleaf; test: Test Example 5: herbicidal effect by foliage application, plastic box (Table 20, symbol M); format: in vivo, velvetleaf (Abutilon theophrasti); conditions: amount of applied herbicide 320 g/ha; foliage application after 14-day growth; evaluated three weeks after application
Summary of the method: as §1

[7] = tested on: velvetleaf; test: Test Example 4: herbicidal effect by soil treatment (Table 19, symbol M); format: in vivo, velvetleaf (Abutilon theophrasti); conditions: amount of applied herbicide 320 g/ha
Summary of the method: (§2)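 Three weeks of greenhouse growth at 25° C. to 30° C. followed a uniform surface spray of water-diluted emulsion at a predetermined herbicide amount. Seeds had been sown beforehand under about 1.5 cm of sterilized diluvial soil. Grading followed criteria set out in an earlier test.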

[8] = tested on: rice flat sedge; test: Test Example 3: herbicidal effect by foliage application, Wagner pot (Table 18, symbol E); format: in vivo, rice flat sedge (Cyperus iria); conditions: 320 g/ha
Summary of the method: (§3)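 Plants were sown in alluvial soil held under 0.1–0.5 cm standing water and grown 14 days in a greenhouse at 25–30 °C. An emulsifiable formulation, water-diluted to the set dose, was then sprayed onto the foliage, and effects were scored three weeks later using previously defined criteria.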

[9] = tested on: blackgrass; test: Test Example 4: herbicidal effect by soil treatment (Table 19, symbol J); format: in vivo, blackgrass (Alopecurus myosuroides); conditions: amount of applied herbicide 320 g/ha
Summary of the method: as §2

[10] = tested on: persian speedwell; test: Test Example 4: herbicidal effect by soil treatment (Table 19, symbol R); format: in vivo, Persian speedwell (Veronica persica); conditions: amount of applied herbicide 320 g/ha
Summary of the method: as §2

[11] = tested on: persian speedwell; test: Test Example 5: herbicidal effect by foliage application, plastic box (Table 20, symbol R); format: in vivo, Persian speedwell (Veronica persica); conditions: amount of applied herbicide 320 g/ha; foliage application after 14-day growth; evaluated three weeks after application
Summary of the method: as §1

[12] = tested on: barnyard grass; test: Test Example 4: herbicidal effect by soil treatment (Table 19, symbol H); format: in vivo, barnyard grass (Echinochloa crus-galli); conditions: amount of applied herbicide 320 g/ha
Summary of the method: as §2

[13] = tested on: lambsquarters; test: Test Example 4: herbicidal effect by soil treatment (Table 19, symbol O); format: in vivo, lambsquarters (Chenopodium album); conditions: amount of applied herbicide 320 g/ha
Summary of the method: as §2

[14] = tested on: Japanese bulrush; test: Test Example 1: herbicidal activity, application before weed generation under submerged conditions (Table 16, symbol B); format: in vivo, Japanese bulrush (Schoenoplectus juncoides); conditions: amount of applied herbicide 320 g/ha
Summary of the method: (§4)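 Alluvial soil was flooded to 4 cm depth, weed seeds were sown mixed and 2.5-leaf rice seedlings were transplanted. On sowing day, the compound's emulsion, diluted in water to a set dose, was applied to the water surface. Plants grew at 25–30 °C and were scored 0–5 after three weeks.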

[15] = tested on: wild oat; test: Test Example 4: herbicidal effect by soil treatment (Table 19, symbol I); format: in vivo, wild oat (Avena fatua); conditions: amount of applied herbicide 320 g/ha
Summary of the method: as §2

[16] = tested on: Italian ryegrass; test: Test Example 4: herbicidal effect by soil treatment (Table 19, symbol K); format: in vivo, Italian ryegrass (Lolium multiflorum); conditions: amount of applied herbicide 320 g/ha
Summary of the method: as §2

[17] = tested on: chickweed; test: Test Example 5: herbicidal effect by foliage application, plastic box (Table 20, symbol P); format: in vivo, common chickweed (Stellaria media); conditions: amount of applied herbicide 320 g/ha; foliage application after 14-day growth; evaluated three weeks after application
Summary of the method: as §1

[18] = tested on: green foxtail; test: Test Example 4: herbicidal effect by soil treatment (Table 19, symbol G); format: in vivo, green foxtail (Setaria viridis); conditions: amount of applied herbicide 320 g/ha
Summary of the method: as §2

[19] = tested on: southern crabgrass; test: Test Example 4: herbicidal effect by soil treatment (Table 19, symbol F); format: in vivo, southern crabgrass (Digitaria ciliaris); conditions: amount of applied herbicide 320 g/ha
Summary of the method: as §2

[20] = tested on: chickweed; test: Test Example 4: herbicidal effect by soil treatment (Table 19, symbol P); format: in vivo, common chickweed (Stellaria media); conditions: amount of applied herbicide 320 g/ha
Summary of the method: as §2

[21] = tested on: windgrass; test: Test Example 4: herbicidal effect by soil treatment (Table 19, symbol L); format: in vivo, windgrass (Apera spica-venti); conditions: amount of applied herbicide 320 g/ha
Summary of the method: as §2

[22] = tested on: late watergrass; test: Test Example 1: herbicidal activity, application before weed generation under submerged conditions (Table 16, symbol A); format: in vivo, late watergrass (Echinochloa oryzicola); conditions: amount of applied herbicide 320 g/ha
Summary of the method: as §4

[23] = tested on: redroot pigweed; test: Test Example 4: herbicidal effect by soil treatment (Table 19, symbol N); format: in vivo, redroot pigweed (Amaranthus retroflexus); conditions: amount of applied herbicide 320 g/ha
Summary of the method: as §2

[24] = tested on: blackgrass; test: Test Example 5: herbicidal effect by foliage application, plastic box (Table 20, symbol J); format: in vivo, blackgrass (Alopecurus myosuroides); conditions: amount of applied herbicide 320 g/ha; foliage application after 14-day growth; evaluated three weeks after application
Summary of the method: as §1

[25] = tested on: Chinese sprangletop; test: Test Example 3: herbicidal effect by foliage application, Wagner pot (Table 18, symbol D); format: in vivo, chinese sprangletop (Leptochloa chinensis); conditions: 320 g/ha
Summary of the method: as §3

[26] = tested on: barnyard grass; test: Test Example 3: herbicidal effect by foliage application, Wagner pot (Table 18, symbol H); format: in vivo, barnyard grass (Echinochloa crus-galli); conditions: 320 g/ha
Summary of the method: as §3

[27] = tested on: barnyard grass; test: Test Example 5: herbicidal effect by foliage application, plastic box (Table 20, symbol H); format: in vivo, barnyard grass (Echinochloa crus-galli); conditions: amount of applied herbicide 320 g/ha; foliage application after 14-day growth; evaluated three weeks after application
Summary of the method: as §1

[28] = tested on: green foxtail; test: Test Example 5: herbicidal effect by foliage application, plastic box (Table 20, symbol G); format: in vivo, green foxtail (Setaria viridis); conditions: amount of applied herbicide 320 g/ha; foliage application after 14-day growth; evaluated three weeks after application
Summary of the method: as §1

[29] = tested on: oval-leafed pondweed; test: Test Example 1: herbicidal activity, application before weed generation under submerged conditions (Table 16, symbol C); format: in vivo, oval-leafed pondweed (Monochoria vaginalis); conditions: amount of applied herbicide 320 g/ha
Summary of the method: as §4

[30] = tested on: windgrass; test: Test Example 5: herbicidal effect by foliage application, plastic box (Table 20, symbol L); format: in vivo, windgrass (Apera spica-venti); conditions: amount of applied herbicide 320 g/ha; foliage application after 14-day growth; evaluated three weeks after application
Summary of the method: as §1

Compound | Herbicidal effect by foliage application, N: redroot pigweed [1] | Herbicidal effect by foliage application, I: wild oat [2] | Herbicidal effect by foliage application, F: southern crabgrass [3] | Herbicidal effect by foliage application, K: Italian ryegrass [4] | Herbicidal effect by foliage application, O: lambsquarters [5] | Herbicidal effect by foliage application, M: velvetleaf [6] | M: velvetleaf, herbicidal effect grade [7] | herbicidal effect on rice flat sedge (E) [8] | J: blackgrass, herbicidal effect grade [9] | R: persian speedwell, herbicidal effect grade [10] | Herbicidal effect by foliage application, R: persian speedwell [11] | H: barnyard grass, herbicidal effect grade [12] | O: lambsquarters, herbicidal effect grade [13] | Herbicidal effect, B: Japanese bulrush [14] | I: wild oat, herbicidal effect grade [15] | K: Italian ryegrass, herbicidal effect grade [16] | Herbicidal effect by foliage application, P: chickweed [17] | G: green foxtail, herbicidal effect grade [18] | F: southern crabgrass, herbicidal effect grade [19] | P: chickweed, herbicidal effect grade [20] | further results
Cc1nn(C)c(=O)c(-c2c(-c3ccccc3OC(C)C)sc3cc(F)c(F)cc23)c1O [5-018] | 1 (Herbicidal rate of 5% or more and less than 20%) | 0 (Herbicidal rate of 5% or less (almost no effect)) | 0 (Herbicidal rate of 5% or less (almost no effect)) | 0 (Herbicidal rate of 5% or less (almost no effect)) | 0 (Herbicidal rate of 5% or less (almost no effect)) | 4 (Herbicidal rate of 70% or more and less than 90%) | 0 (Herbicidal rate of 5% or less (almost no effect)) | 3 (Herbicidal rate of 40% or more and less than 70%) | 0 (Herbicidal rate of 5% or less (almost no effect)) | 3 (Herbicidal rate of 40% or more and less than 70%) | 5 (Herbicidal rate of 90% or more (almost completely withered)) | 2 (Herbicidal rate of 20% or more and less than 40%) | 1 (Herbicidal rate of 5% or more and less than 20%) | 5 (Herbicidal rate of 90% or more (almost completely withered)) | 0 (Herbicidal rate of 5% or less (almost no effect)) | 0 (Herbicidal rate of 5% or less (almost no effect)) | 5 (Herbicidal rate of 90% or more (almost completely withered)) | 3 (Herbicidal rate of 40% or more and less than 70%) | 0 (Herbicidal rate of 5% or less (almost no effect)) | 4 (Herbicidal rate of 70% or more and less than 90%) | L: windgrass, herbicidal effect grade [21]: 0 (Herbicidal rate of 5% or less (almost no effect)); Herbicidal effect, A: late watergrass [22]: 0 (Herbicidal rate of 5% or less (almost no effect)); N: redroot pigweed, herbicidal effect grade [23]: 2 (Herbicidal rate of 20% or more and less than 40%); Herbicidal effect by foliage application, J: blackgrass [24]: 1 (Herbicidal rate of 5% or more and less than 20%); herbicidal effect on Chinese sprangletop (D) [25]: 0 (Herbicidal rate of 5% or less (almost no effect)); herbicidal effect on barnyard grass (H) [26]: 4 (Herbicidal rate of 70% or more and less than 90%); Herbicidal effect by foliage application, H: barnyard grass [27]: 0 (Herbicidal rate of 5% or less (almost no effect)); Herbicidal effect by foliage application, G: green foxtail [28]: 2 (Herbicidal rate of 20% or more and less than 40%); Herbicidal effect, C: oval-leafed pondweed [29]: 5 (Herbicidal rate of 90% or more (almost completely withered)); Herbicidal effect by foliage application, L: windgrass [30]: 0 (Herbicidal rate of 5% or less (almost no effect))
CCCC(=O)Oc1c(C)nn(C)c(=O)c1-c1c(-c2ccc(OC(C)C)cc2)sc2cc(F)c(F)cc12 [5-020] | 4 (Herbicidal rate of 70% or more and less than 90%) | 0 (Herbicidal rate of 5% or less (almost no effect)) | 0 (Herbicidal rate of 5% or less (almost no effect)) | 0 (Herbicidal rate of 5% or less (almost no effect)) | 3 (Herbicidal rate of 40% or more and less than 70%) | 2 (Herbicidal rate of 20% or more and less than 40%) | 0 (Herbicidal rate of 5% or less (almost no effect)) | 0 (Herbicidal rate of 5% or less (almost no effect)) | 0 (Herbicidal rate of 5% or less (almost no effect)) | 3 (Herbicidal rate of 40% or more and less than 70%) | 5 (Herbicidal rate of 90% or more (almost completely withered)) | 0 (Herbicidal rate of 5% or less (almost no effect)) | 0 (Herbicidal rate of 5% or less (almost no effect)) | 0 (Herbicidal rate of 5% or less (almost no effect)) | 0 (Herbicidal rate of 5% or less (almost no effect)) | 0 (Herbicidal rate of 5% or less (almost no effect)) | 4 (Herbicidal rate of 70% or more and less than 90%) | 0 (Herbicidal rate of 5% or less (almost no effect)) | 0 (Herbicidal rate of 5% or less (almost no effect)) | 0 (Herbicidal rate of 5% or less (almost no effect)) | L: windgrass, herbicidal effect grade [21]: 0 (Herbicidal rate of 5% or less (almost no effect)); Herbicidal effect, A: late watergrass [22]: 3 (Herbicidal rate of 40% or more and less than 70%); N: redroot pigweed, herbicidal effect grade [23]: 3 (Herbicidal rate of 40% or more and less than 70%); Herbicidal effect by foliage application, J: blackgrass [24]: 0 (Herbicidal rate of 5% or less (almost no effect)); herbicidal effect on Chinese sprangletop (D) [25]: 0 (Herbicidal rate of 5% or less (almost no effect)); herbicidal effect on barnyard grass (H) [26]: 3 (Herbicidal rate of 40% or more and less than 70%); Herbicidal effect by foliage application, H: barnyard grass [27]: 1 (Herbicidal rate of 5% or more and less than 20%); Herbicidal effect by foliage application, G: green foxtail [28]: 0 (Herbicidal rate of 5% or less (almost no effect)); Herbicidal effect, C: oval-leafed pondweed [29]: 0 (Herbicidal rate of 5% or less (almost no effect)); Herbicidal effect by foliage application, L: windgrass [30]: 0 (Herbicidal rate of 5% or less (almost no effect))

Reference: patent US20230085307A1, “PYRIDAZINONE COMPOUND AND HERBICIDE” (NISSAN CHEMICAL CORPORATION, priority 2019, published 2023)
